# Where “and” joins values, the source holds several entries; their conditions need not be identical. Equal values may be shown once.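 All cell lines were grown in 96-well plates and treated with compound for 48 hours. At the GI50, growth is halved. The concentration for full growth arrest is given as TGI.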
# Columns and labels:
# Experiment in all cases: growth of human tumour cells (NCI), 48 h
# OVCAR-5 ovarian = tested on: OVCAR-5 ovarian
# NCI-H226 lung = tested on: NCI-H226 lung
# OVCAR-3 ovarian = tested on: OVCAR-3 ovarian
# SW-620 colon = tested on: SW-620 colon
# OVCAR-8 ovarian = tested on: OVCAR-8 ovarian
# NCI-H460 lung = tested on: NCI-H460 lung
# OVCAR-4 ovarian = tested on: OVCAR-4 ovarian
# 786-0 renal = tested on: 786-0 renal
# HOP-62 NSCLC = tested on: HOP-62 NSCLC
# SK-OV-3 ovarian = tested on: SK-OV-3 ovarian
Structure (SMILES),TGI (OVCAR-5 ovarian),TGI (NCI-H226 lung),TGI (OVCAR-3 ovarian),TGI (SW-620 colon),TGI (OVCAR-8 ovarian),TGI (NCI-H460 lung),TGI (OVCAR-4 ovarian),TGI (786-0 renal),TGI (HOP-62 NSCLC),TGI (SK-OV-3 ovarian),GI50 (OVCAR-5 ovarian),GI50 (NCI-H226 lung),GI50 (OVCAR-3 ovarian),GI50 (SW-620 colon),GI50 (OVCAR-8 ovarian),GI50 (NCI-H460 lung),GI50 (OVCAR-4 ovarian),GI50 (786-0 renal),GI50 (HOP-62 NSCLC),GI50 (SK-OV-3 ovarian)
COc1cc(C2c3cc4c(cc3OC(O)C2C)OCO4)cc(OC)c1OC (stereo not drawn),> 100 µM,7.33 µM,5.25 µM,> 100 µM,> 20.5 µM,> 51.3 µM,> 79.4 µM,> 100 µM,> 100 µM,23.3 µM,–,–,–,–,–,–,–,–,–,–
Cc1c(Nc2nccc3cc(CN4CC[C@@H](O)C4)cnc23)cccc1-c1cccc(-c2nc3cc(CN4CC[C@@H](C(=O)O)C4)cc(C#N)c3o2)c1C,> 100 µM,> 100 µM,> 100 µM,17.9 µM,36.2 µM,21.8 µM,> 100 µM,> 100 µM,> 100 µM,> 100 µM,53.7 µM,> 100 µM,14.8 µM,4.67 µM,12.4 µM,7.15 µM,14.3 µM,4.5 µM,> 100 µM,> 100 µM
O=S(=O)(/N=S(/Nc1ccccc1)C(F)(F)Cl)c1ccccc1 (stereo not drawn),> 100 µM,> 100 µM,> 100 µM,> 100 µM,> 100 µM,> 100 µM,> 100 µM,> 100 µM,> 100 µM,> 100 µM,–,–,–,–,–,–,–,–,–,–
COc1cc2c(cc1OC)C(C(CBr)CBr)N(C1CCCC1)CC2 (stereo not drawn),> 100 µM,> 100 µM,> 100 µM,> 100 µM,> 100 µM,> 100 µM,> 100 µM,> 100 µM,> 100 µM,> 100 µM,–,–,–,–,–,–,–,–,–,–
COc1ccc(N2C(=O)[C@@H](N=[N+]=[N-])[C@@H]2[C@H]2COC(C)(C)O2)cc1,> 100 µM,> 100 µM,> 100 µM,> 100 µM,> 100 µM,> 100 µM,> 100 µM,> 100 µM,> 100 µM,> 100 µM,–,–,–,–,–,–,–,–,–,–
O=C1OCC2=C1C(c1cccc(C(F)(F)F)c1)c1cc3c(cc1N2CCO)OCCO3 (stereo not drawn),> 33.3 µM,> 33.3 µM,> 33.3 µM,> 33.3 µM,> 33.3 µM,> 33.3 µM,> 33.3 µM,> 33.3 µM,> 33.3 µM,> 33.3 µM,1.75 µM,> 33.3 µM,1.24 µM,1.24 µM,1.29 µM,1.22 µM,6.41 µM,1.81 µM,1.31 µM,1.29 µM
COc1cc(C)cc(C(=O)/C=C/c2ccccc2)c1O,34.9 µM,73.9 µM,47.8 µM,52.3 µM,40 µM,44.7 µM,45.9 µM,37.3 µM,40.3 µM,83.5 µM,–,–,–,–,–,–,–,–,–,–
Cc1cc(=O)[nH]c(NNC(C#N)c2ccccc2O)n1 (stereo not drawn),> 100 µM,84.2 µM,> 100 µM,> 100 µM,> 100 µM,> 100 µM,> 100 µM,> 100 µM,99.8 µM,> 100 µM,–,–,–,–,–,–,–,–,–,–
COc1cc(/C=C/C(=O)CC(=O)/C=C/c2cc(OC)c(O)c(OC)c2)cc(OC)c1O,25 µM and 83.5 µM,25 µM and > 100 µM,17.3 µM and > 100 µM,> 100 µM,25 µM and 61.3 µM,> 100 µM,25 µM and > 100 µM,25 µM and > 100 µM,25 µM and > 100 µM,24 µM and > 100 µM,27.1 µM,53.6 µM,18.6 µM,–,18 µM,–,29.5 µM,38.6 µM,19.6 µM,32 µM
OCCCCC#Cc1ccccc1C#Cc1cccnc1,> 100 µM,> 100 µM,> 100 µM,> 100 µM,> 100 µM,> 100 µM,> 100 µM,58.3 µM,57.4 µM,> 100 µM,27.5 µM,34.1 µM,32.9 µM,45.2 µM,30.7 µM,31.6 µM,26.5 µM,20.2 µM,20 µM,57.3 µM
O=C1C=CC(=O)c2c1ccc1c3ccccc3n(Cc3ccccc3)c21,72.4 µM,24.7 µM,33 µM,25.7 µM,> 100 µM,> 100 µM,18.1 µM,33.1 µM,> 100 µM,> 100 µM,–,–,–,–,–,–,–,–,–,–
Cc1ccccc1-n1c(=S)[nH]c2c(sc(=O)n2-c2ccccc2C)c1=O,> 100 µM,> 100 µM,> 100 µM,> 100 µM,> 100 µM,> 100 µM,> 100 µM,> 100 µM,> 100 µM,> 100 µM,–,–,–,–,–,–,–,–,–,–
N#CC1=C(N)NC(N2CCOCC2)=NC12Nc1ccccc1O2 (stereo not drawn),> 100 µM,> 100 µM,84.8 µM,> 100 µM,> 100 µM,> 100 µM,> 100 µM,60.1 µM,51.3 µM,> 100 µM,> 100 µM,98.7 µM,25.1 µM,43.2 µM,80.6 µM,46.1 µM,> 100 µM,21.5 µM,14 µM,> 100 µM
CCN(CC)CCCNCc1cc(-c2ccccc2)nc2cc(Cl)ccc12,21.7 µM,27.3 µM,20.5 µM,3.94 µM,18.8 µM,11.2 µM,20.5 µM,8.77 µM,19.3 µM,24.1 µM,7.83 µM,11.8 µM,7.58 µM,1.97 µM,5.81 µM,3.41 µM,7.1 µM,2.41 µM,5.54 µM,11.7 µM
CCCCCCCCCCCNC=O,> 100 µM,> 100 µM,> 100 µM,> 100 µM,> 100 µM,> 100 µM,> 100 µM,> 100 µM,> 100 µM,> 100 µM,–,–,–,–,–,–,–,–,–,–
O=C1NC(=O)C(=Cc2cn(Cc3ccccc3)c3ccccc23)C(=O)N1,2.15 µM,3.29 µM,19.4 µM,28.9 µM,43.8 µM,13.4 µM,21 µM,33 µM,37.7 µM,29 µM,0.332 µM,0.951 µM,5.75 µM,12.1 µM,17.1 µM,0.264 µM,4.84 µM,17.1 µM,15.2 µM,6.3 µM
CCCCCCC(=O)C/C(CCC(=O)N(Cc1ccccc1)Cc1ccccc1)=N\NC(N)=O,> 100 µM,> 100 µM,> 100 µM,> 100 µM,> 100 µM,> 100 µM,> 100 µM,> 100 µM,> 100 µM,> 100 µM,–,–,–,–,–,–,–,–,–,–
Nc1nc(Cl)nc2c1ncn2C1OC(CO)C(O)C1F (stereo not drawn),> 100 µM,> 17.3 µM,> 100 µM,> 100 µM,> 100 µM,> 100 µM,> 100 µM,13.6 µM,22.4 µM,> 100 µM,5.68 µM,0.216 µM,> 100 µM,0.839 µM,0.0292 µM,0.462 µM,> 82.2 µM,0.0876 µM,0.109 µM,0.355 µM
Cc1nc(NS(=O)(=O)c2ccc(NCN3C(=O)c4ccccc4C3=O)cc2)oc1C,> 100 µM,> 100 µM,> 100 µM,> 100 µM,> 100 µM,> 100 µM,> 100 µM,> 100 µM,> 100 µM,> 100 µM,> 100 µM,> 100 µM,> 100 µM,> 100 µM,> 100 µM,> 100 µM,> 100 µM,> 100 µM,> 100 µM,> 100 µM
CC(C)=Cc1cc(C)c2ccc(C)c3c2c1C(C)=C(O)C3=O,43.1 µM,81 µM,49.2 µM,> 100 µM,> 100 µM,> 100 µM,> 100 µM,> 100 µM,61.7 µM,81.2 µM,18.7 µM,30.8 µM,15.6 µM,30 µM,36.6 µM,51.2 µM,> 100 µM,35.9 µM,28.4 µM,27.4 µM
CC(=O)c1c[nH]c2ccc(-c3ccnc(Nc4ccc(NC(=O)C5CCCC5)c(CN5CCOCC5)c4)n3)cc12,0.222 µM,0.284 µM,0.678 µM,0.551 µM,> 100 µM,0.125 µM,0.573 µM,2.63 µM,3.52 µM,> 100 µM,0.0296 µM,0.0298 µM,0.0267 µM,0.0387 µM,0.0362 µM,0.033 µM,0.0453 µM,0.031 µM,0.0403 µM,0.0454 µM
